In publication PMC10414684, “Novel integrated computational AMP discovery approaches highlight diversity in the helminth AMP repertoire” (PLOS Pathogens, 2023):
No end group written: not given here.

What was measured:
[1] = Computationally predicted from Kunitz inhibitor protein; ref [21]; cited from earlier work
Source text: Table 4 Reported AMPs from Schistosoma mansoni. | column: Activity reported

A. baumannii DSM 30007 = assay: Minimum inhibitory concentration, microbroth dilution; type: cell-based, Acinetobacter baumannii; conditions: cation-adjusted MHB, 5x10^5 CFU/ml, 37°C, 18–24 h, visible growth; for MIC A. baumannii DSM 30007 (-): peptides 512–0.25μg/ml, >70% purity (Cecropin P1 >95%), Ciprofloxacin 32–0.02μg/ml
Experimental: (§1) Prioritised helminth AMP-LPs were synthesised at >70% purity (Genosphere Biotechnologies). […] Peptides and control antibiotics [Ciprofloxacin (for gram-negative species; Sigma-Aldrich) and Vancomycin hydrochloride (for gram-positive species; Sigma-Aldrich)] were dissolved in sterile ultrapure water at a concentration of 5.12mg/ml. Minimum inhibitory concentrations (MICs) were determined for gram-positive and gram-negative bacterial isolates (see Table 3 for species) using microbroth dilution assays as described previously. Briefly, a single colony from each bacterial species was inoculated in cation-adjusted Mueller Hinton Broth (MHB) and grown for 18–24 hours at 37°C with shaking (225rpm) before being adjusted to a final bacterial density of 5x10^5 colony forming units (CFU) per ml. Peptides and Vancomycin hydrochloride were diluted using sterile MHB in sterile U-bottom 96 well polypropylene microplates (Greiner Bio One, UK) to give a concentration gradient ranging from 512–0.25μg/ml. Ciprofloxacin was further diluted in sterile MHB to give a concentration gradient ranging from 32–0.02μg/ml. Microplates were incubated at 37°C for 18–24 hours. Plates were assessed for visible growth and the MIC was defined as the lowest concentration of peptide or antibiotic that inhibited visible growth of a bacterial culture after an 18–24-hour incubation. MIC data were validated by positive and negative control antibiotic MIC data for each bacterial isolate.

P. aeruginosa PA01 = assay: as above; type: cell-based, Pseudomonas aeruginosa; conditions: cation-adjusted MHB, 5x10^5 CFU/ml, 37°C, 18–24 h, visible growth; for MIC P. aeruginosa PA01 (-): peptides 512–0.25μg/ml, >70% purity (Cecropin P1 >95%), Ciprofloxacin 32–0.02μg/ml
Experimental: as §1

E. coli K12 = assay: as above; type: cell-based, Escherichia coli; conditions: cation-adjusted MHB, 5x10^5 CFU/ml, 37°C, 18–24 h, visible growth; for MIC E. coli K12 (-): peptides 512–0.25μg/ml, >70% purity (Cecropin P1 >95%), Ciprofloxacin 32–0.02μg/ml
Experimental: as §1

S. aureus EMRSA-15 = assay: microbe, parasite or virus in culture; type: cell-based, Staphylococcus aureus; conditions: Methicillin-resistant, microbroth dilution, cation-adjusted MHB, 5x10^5 CFU/ml, 37°C, 18–24 h, visible growth; for MIC S. aureus EMRSA-15 (+): peptides and Vancomycin hydrochloride 512–0.25μg/ml, peptides >70% purity (Cecropin P1 >95%)
Experimental: as §1

S. aureus RN4220 = assay: microbe, parasite or virus in culture; type: cell-based, Staphylococcus aureus; conditions: Methicillin-Sensitive, microbroth dilution, cation-adjusted MHB, 5x10^5 CFU/ml, 37°C, 18–24 h, visible growth; for MIC S. aureus RN4220 (+): peptides and Vancomycin hydrochloride 512–0.25μg/ml, peptides >70% purity (Cecropin P1 >95%)
Experimental: as §1

[2] = test system: gram-positive and gram-negative bacterial isolates; type: cell-based
Experimental: as §1, with “MIC data were validated by positive and negative control antibiotic MIC data for each bacterial isolate.” left out

E. faecalis JH2-2 = assay: microbe, parasite or virus in culture; type: cell-based, Enterococcus faecalis
Experimental: as §1

[3] = microbroth dilution, cation-adjusted MHB, 5x10^5 CFU/ml, 37°C, 18–24 h, visible growth, peptides and Vancomycin hydrochloride 512–0.25μg/ml, peptides >70% purity (Cecropin P1 >95%)

Substance	MIC A. baumannii DSM 30007 (-) (A. baumannii DSM 30007)	MIC P. aeruginosa PA01 (-) (P. aeruginosa PA01)	MIC E. coli K12 (-) (E. coli K12)	MIC S. aureus EMRSA-15 (+) (S. aureus EMRSA-15)	MIC S. aureus RN4220 (+) (S. aureus RN4220)	MIC E. faecalis JH2-2 (+) (E. faecalis JH2-2; [3])	further results
GILDIKNKVSNLFKKIKGEK [Schistocin-1]							Activity reported (all activity) [1]: All activity >100μM
GLGKSLKKIGRKIDKGFRKIRDRAGASVSFGSGQKPQGSIQISPV-NH2 [nAMP-LP-617]	8 µg/mL	32 µg/mL	4 µg/mL	/ (/ indicates that there was no activity at the highest concentration of peptide used (512μg/ml))	/ (/ indicates that there was no activity at the highest concentration of peptide used (512μg/ml))	/ (/ indicates that there was no activity at the highest concentration of peptide used (512μg/ml))	MIC (A. baumannii DSM 30007; read-out: MIC A. baumannii DSM 30007 (-), μM in brackets): 2 µM; MIC (P. aeruginosa PA01; read-out: MIC P. aeruginosa PA01 (-), μM in brackets): 7 µM; MIC (E. coli K12; read-out: MIC E. coli K12 (-), μM in brackets): 1 µM; MIC against gram-negative species screened [2]: 4 to 32 µg/mL
GFGKWVKKKWGSVRKGASKLVKGVKKVFPKKGIPIIRYERRF [nAMP-LP-249]							MIC against gram-negative species screened [2]: 8 µg/mL; MIC E. faecalis JH2-2 (+) (E. faecalis JH2-2; JH2-2): 16 µg/mL
ISKFLKGAAIAGGLAVAGAVAYKAYKNYKKNQEQQAAATGRK [nAMP-LP-11, nematode AMP-like peptide selected for synthesis and MIC screening]	/ (/ indicates that there was no activity at the highest concentration of peptide used (512μg/ml))	/ (/ indicates that there was no activity at the highest concentration of peptide used (512μg/ml))	/ (/ indicates that there was no activity at the highest concentration of peptide used (512μg/ml))	/ (/ indicates that there was no activity at the highest concentration of peptide used (512μg/ml))	/ (/ indicates that there was no activity at the highest concentration of peptide used (512μg/ml))	/ (/ indicates that there was no activity at the highest concentration of peptide used (512μg/ml))	
GILDIKNKVSNLFKKIK [Schistocin-2]							Activity reported [1]: Antifungal
GTFWKAVGAGALIGGGAALLSKAFK[nh2] [nAMP-LP-18, nematode AMP-like peptide identified in four Meloidogyne species]	/ (/ indicates that there was no activity at the highest concentration of peptide used (512μg/ml))	/ (/ indicates that there was no activity at the highest concentration of peptide used (512μg/ml))	/ (/ indicates that there was no activity at the highest concentration of peptide used (512μg/ml))	64 µg/mL	64 µg/mL	64 µg/mL	MIC S. aureus EMRSA-15 (+), μM in brackets (S. aureus EMRSA-15): 27 µM; MIC S. aureus RN4220 (+), μM in brackets (S. aureus RN4220): 27 µM; MIC E. faecalis JH2-2 (+), μM in brackets (E. faecalis JH2-2; microbroth dilution, cation-adjusted MHB, 5x10^5 CFU/ml, 37°C, 18–24 h, visible growth): 27 µM
FDKNLLKKGKKSSAYEKHPISRRVLRFE [nAMP-LP-764, nematode AMP-like peptide selected for synthesis and MIC screening]	/ (/ indicates that there was no activity at the highest concentration of peptide used (512μg/ml))	/ (/ indicates that there was no activity at the highest concentration of peptide used (512μg/ml))	/ (/ indicates that there was no activity at the highest concentration of peptide used (512μg/ml))	/ (/ indicates that there was no activity at the highest concentration of peptide used (512μg/ml))	/ (/ indicates that there was no activity at the highest concentration of peptide used (512μg/ml))	/ (/ indicates that there was no activity at the highest concentration of peptide used (512μg/ml))	
GILDIKNKVSNLF [Schistocin-3]							Activity reported [1]: Antibacterial Antifungal
EYLRKVKDAGAGKAKGGGAPGAESKSGKKSGSAETAASGGAKKGKKK [nAMP-LP-98, nematode AMP-like peptide selected for synthesis and MIC screening]	/ (/ indicates that there was no activity at the highest concentration of peptide used (512μg/ml))	/ (/ indicates that there was no activity at the highest concentration of peptide used (512μg/ml))	/ (/ indicates that there was no activity at the highest concentration of peptide used (512μg/ml))	/ (/ indicates that there was no activity at the highest concentration of peptide used (512μg/ml))	/ (/ indicates that there was no activity at the highest concentration of peptide used (512μg/ml))	/ (/ indicates that there was no activity at the highest concentration of peptide used (512μg/ml))	
FGYWSGGGHGGGHGIHGGGGGHHGWH [nAMP-LP-235, nematode AMP-like peptide selected for synthesis and MIC screening]	/ (/ indicates that there was no activity at the highest concentration of peptide used (512μg/ml))	/ (/ indicates that there was no activity at the highest concentration of peptide used (512μg/ml))	/ (/ indicates that there was no activity at the highest concentration of peptide used (512μg/ml))	/ (/ indicates that there was no activity at the highest concentration of peptide used (512μg/ml))	/ (/ indicates that there was no activity at the highest concentration of peptide used (512μg/ml))	/ (/ indicates that there was no activity at the highest concentration of peptide used (512μg/ml))	
AVAHVALKLATSPVGKVALNAMVPGAGTVLGVAAKHHGMVKKLVRV [nAMP-LP-224, nematode AMP-like peptide selected for synthesis and MIC screening]	/ (/ indicates that there was no activity at the highest concentration of peptide used (512μg/ml))	/ (/ indicates that there was no activity at the highest concentration of peptide used (512μg/ml))	/ (/ indicates that there was no activity at the highest concentration of peptide used (512μg/ml))	/ (/ indicates that there was no activity at the highest concentration of peptide used (512μg/ml))	/ (/ indicates that there was no activity at the highest concentration of peptide used (512μg/ml))	/ (/ indicates that there was no activity at the highest concentration of peptide used (512μg/ml))	
